The record followed here is ChEMBL document CHEMBL4765407, “Design, synthesis and high antitumor potential of new unsymmetrical bisacridine derivatives towards human solid tumors, specifically pancreatic cancers and their unique ability to stabilize DNA G-quadruplexes” (Eur J Med Chem, 2020).

As a reminder, the IC50 is the concentration that inhibits the measured activity by half. The term ΔTm denotes the shift of the melting midpoint relative to a reference.

One experiment deals with DU-145. The experiment is described as follows: Cytotoxicity against human DU-145 cells assessed as reduction in cell viability measured after 72 hrs by SRB assay. It is filed as functional, cell-based. The following applies: DU-145, 72 h. On the technique in general: The SRB assay estimates cell density from bound dye.
The test system of another experiment is HCT-116. The experiment is described as follows: Cytotoxicity against human HCT-116 cells assessed as reduction in cell viability measured after 72 hrs by SRB assay. It is filed as functional, cell-based. The following applies: HCT-116, 72 h.
Experiment [1] has as its system PANC-1. As to the kind of experiment: Cytotoxicity against human PANC-1 cells assessed as reduction in cell viability measured after 72 hrs by SRB assay. It is filed as functional, cell-based. The following applies: PANC-1, 72 h.
For experiment [2], the system named is MIA PaCa-2. The experiment is described as follows: Cytotoxicity against human MIA PaCa-2 cells assessed as reduction in cell viability measured after 72 hrs by SRB assay. Type of experiment: functional, cell-based. The following applies: MIA PaCa-2, 72 h.
Experiment [3] has as its system BXPC-3. As to the kind of experiment: Cytotoxicity against human BXPC-3 cells assessed as reduction in cell viability measured after 72 hrs by SRB assay. Type of experiment: functional, cell-based. The following applies: BXPC-3, 72 h.
The next experiment deals with ASPC1. The experiment is described as follows: Cytotoxicity against human ASPC1 cells assessed as reduction in cell viability measured after 72 hrs by SRB assay. Type of experiment: functional, cell-based. The following applies: ASPC1, 72 h.
For experiment [4], the system named is PANC-1. The experiment is described as follows: Antitumour activity against human PANC-1 cells xenografted in Crl:Nu-Foxnl nu mouse assessed as inhibition of tumour growth at total effective dose of 16 mg/kg, iv measured on day 40. The following applies: PANC-1, iv, 960 h, time 40 day, read-out: TGI. It is filed as functional. A general note: Xenograft models place foreign cells or tissue in a host animal.

In experiment [5] the test system is PANC-1. The experiment is described as follows: Antitumour activity against human PANC-1 cells xenografted in Crl:Nu-Foxnl nu mouse assessed as inhibition of tumour growth at total effective dose of 120 mg/kg, iv measured on day 37. It is filed as functional. The following applies: PANC-1, iv, 888 h, time 37 day, read-out: TGI.
Experiment [6] relates to PANC-1. The experiment is described as follows: Antitumour activity against human PANC-1 cells xenografted in Crl:Nu-Foxnl nu mouse assessed as inhibition of tumour growth at total effective dose of 160 mg/kg, iv measured on day 56. Type of experiment: functional. The following applies: PANC-1, iv, 1344 h, time 56 day, read-out: TGI.
A further experiment deals with PC-3. The experiment is described as follows: Cytotoxicity against human PC-3 cells assessed as reduction in cell viability measured after 72 hrs by SRB assay. Type of experiment: functional, cell-based. The following applies: PC-3, 72 h.
The test system of a further experiment is HT-29. The experiment is described as follows: Cytotoxicity against human HT-29 cells assessed as reduction in cell viability measured after 72 hrs by SRB assay. It is filed as functional, cell-based. The following applies: HT-29, 72 h.
For another experiment, the system named is NCI-H460. As to the kind of experiment: Cytotoxicity against human NCI-H460 cells assessed as reduction in cell viability measured after 72 hrs by SRB assay. Type of experiment: functional, cell-based. The following applies: NCI-H460, 72 h.
Experiment [7] concerns UMUC3. As to the kind of experiment: Cytotoxicity against human UMUC3 cells assessed as reduction in cell viability measured after 72 hrs by SRB assay. Type of experiment: functional, cell-based. The following applies: UMUC3, 72 h.
The next experiment has as its system MCF7. As to the kind of experiment: Cytotoxicity against human MCF7 cells assessed as reduction in cell viability measured after 72 hrs by SRB assay. Type of experiment: functional, cell-based. The following applies: MCF7, 72 h.
The subject of experiment [8] is MDA-MB-231. As to the kind of experiment: Cytotoxicity against human MDA-MB-231 cells assessed as reduction in cell viability measured after 72 hrs by SRB assay. The following applies: MDA-MB-231, 72 h. It is filed as functional, cell-based.
Another experiment has as its system Capan-2. As to the kind of experiment: Cytotoxicity against human Capan-2 cells assessed as reduction in cell viability measured after 72 hrs by SRB assay. The following applies: Capan-2, 72 h. Type of experiment: functional, cell-based.
The subject of experiment [9] is PANC-1. The experiment is described as follows: Antitumour activity against human PANC-1 cells xenografted in Crl:Nu-Foxnl nu mouse assessed as inhibition of tumour growth at total effective dose of 8 mg/kg, iv measured on day 32. It is filed as functional. The following applies: PANC-1, iv, 768 h, time 32 day, read-out: TGI.
In experiment [10] the test system is MIA PaCa-2. The experiment is described as follows: Antitumour activity against human MIA PaCa-2 cells xenografted in Crl:Nu-Foxnl nu mouse assessed as inhibition of tumour growth at total effective dose of 16 mg/kg, iv measured on day 26. The following applies: MIA PaCa-2, iv, 624 h, time 26 day, read-out: TGI. Type of experiment: functional.
The subject of experiment [11] is UMUC3. As to the kind of experiment: Antitumour activity against human UMUC3 cells xenografted in Crl:Nu-Foxnl nu mouse assessed as inhibition of tumour growth at total effective dose of 28 mg/kg, iv measured on day 23. It is filed as functional. The following applies: 552 h, time 23 day, read-out: TGI.
For experiment [12], the system named is PANC-1. As to the kind of experiment: Antitumour activity against human PANC-1 cells xenografted in Crl:Nu-Foxnl nu mouse assessed as inhibition of tumour growth at total effective dose of 10 mg/kg, iv measured on day 31. The following applies: PANC-1, iv, 744 h, time 31 day, read-out: TGI. Type of experiment: functional.
The test system of experiment [13] is PANC-1. The experiment is described as follows: Antitumour activity against human PANC-1 cells xenografted in Crl:Nu-Foxnl nu mouse assessed as inhibition of tumour growth at total effective dose of 36 mg/kg, iv measured on day 45. Type of experiment: functional. The following applies: PANC-1, iv, 1080 h, time 45 day, read-out: TGI.
The subject of experiment [14] is PANC-1. The experiment is described as follows: Antitumour activity against human PANC-1 cells xenografted in Crl:Nu-Foxnl nu mouse assessed as inhibition of tumour growth at total effective dose of 20 mg/kg, iv measured on day 36. Type of experiment: functional. The following applies: PANC-1, iv, 864 h, time 36 day, read-out: TGI.
In experiment [15] the test system is MIA PaCa-2. The experiment is described as follows: Antitumour activity against human MIA PaCa-2 cells xenografted in Crl:Nu-Foxnl nu mouse assessed as inhibition of tumour growth at total effective dose of 42 mg/kg, iv measured on day 26. It is filed as functional. The following applies: MIA PaCa-2, iv, 624 h, time 26 day, read-out: TGI.
Experiment [16] relates to MIA PaCa-2. The experiment is described as follows: Antitumour activity against human MIA PaCa-2 cells xenografted in Crl:Nu-Foxnl nu mouse assessed as inhibition of tumour growth at total effective dose of 8 mg/kg, ip measured on day 15. The following applies: MIA PaCa-2, ip, 360 h, time 15 day, read-out: TGI. Type of experiment: functional.
Experiment [17] deals with BXPC-3. As to the kind of experiment: Antitumour activity against human BXPC-3 cells xenografted in Crl:Nu-Foxnl nu mouse assessed as inhibition of tumour growth at total effective dose of 30 mg/kg, iv measured on day 37. Type of experiment: functional. The following applies: BXPC-3, iv, 888 h, time 37 day, read-out: TGI.
Experiment [18] has as its system Quadruplex DNA. As to the kind of experiment: Stabilization of 5'-FAM/3'-TAMRA labeled c-Myc promoter G4 quadruplex DNA FPu18 (unknown origin) assessed as change in melting temperature at 10 microM measured after 15 mins by FRET assay. It is filed as nucleic-acid assay.
Experiment [19] has as its system Quadruplex DNA. As to the kind of experiment: Stabilization of 5'-FAM/3'-TAMRA labeled telomeric G4 quadruplex DNA F21T (unknown origin) assessed as change in melting temperature at 10 microM measured after 15 mins by FRET assay. Type of experiment: nucleic-acid assay.
Experiment [20] relates to Quadruplex DNA. The experiment is described as follows: Stabilization of 5'-FAM/3'-TAMRA labeled K-Ras G4 quadruplex DNA (unknown origin) assessed as change in melting temperature at 10 microM measured after 15 mins by FRET assay. It is filed as nucleic-acid assay.
Experiment [21] can be described thus: Stabilization of ds 5'-FAM-d(TATAGCTATA-HEG-TATAGCTATA)-TAMRA-3' (unknown origin) assessed as change in melting temperature at 10 microM measured after 15 mins by FRET assay. The following applies: Homo sapiens.
Experiment [22] has as its system BXPC-3. The experiment is described as follows: Antitumour activity against human BXPC-3 cells xenografted in Crl:Nu-Foxnl nu mouse assessed as inhibition of tumour growth at total effective dose of 160 mg/kg, iv measured on day 36. Type of experiment: functional. The following applies: BXPC-3, iv, 864 h, time 36 day, read-out: TGI.
Experiment [23] relates to BXPC-3. The experiment is described as follows: Antitumour activity against human BXPC-3 cells xenografted in Crl:Nu-Foxnl nu mouse assessed as inhibition of tumour growth at total effective dose of 160 mg/kg, iv measured on day 32. It is filed as functional. The following applies: BXPC-3, iv, 768 h, time 32 day, read-out: TGI.
Experiment [24] has as its system MDA-MB-231. The experiment is described as follows: Antitumour activity against human MDA-MB-231 cells xenografted in Crl:Nu-Foxnl nu mouse assessed as inhibition of tumour growth at total effective dose of 120 mg/kg, iv measured on day 32. The following applies: MDA-MB-231, iv, 768 h, time 32 day, read-out: TGI. Type of experiment: functional.

`Cc1nc2ccc(NCCCN3CCN(CCC(N)c4ccc5nc6ccccc6cc5c4[N+](=O)[O-])CC3)c3c(=O)c4cc(O)ccc4n1c23` (stereo not given): the IC50 in the experiment on DU-145 was 24 nM; with HCT-116, 27 nM; in the experiment with PANC-1 [1] it was 39 nM; in the experiment with MIA PaCa-2 [2], 18 nM; in the experiment on BXPC-3 [3], 152 nM; in the experiment on ASPC1, 151 nM. Further, in the experiment with PANC-1 [4], the inhibition in vivo at 16 mg/kg was 68%. Besides, in the experiment with PANC-1 [5], the inhibition in vivo at 120 mg/kg was 64%. In addition, in the experiment on PANC-1 [6], the inhibition in vivo at 160 mg/kg came out at 69%.

`O=c1c2cc(O)ccc2n2cnc3ccc(NCCCN4CCN(CCCNc5c6ccccc6nc6cccc([N+](=O)[O-])c56)CC4)c1c32`: the half-inhibitory concentration (IC50) in the experiment on DU-145 came out at 20 nM; in the experiment with PC-3, 35 nM; in the experiment on HT-29 it was 81 nM; in the experiment with NCI-H460, 17 nM; with HCT-116 it was 20 nM; in the experiment with UMUC3 [7] it was 18 nM. The IC50 worked out at 62 nM in the experiment on MCF7; 19 nM in the experiment on MDA-MB-231 [8]; 24 nM in the experiment with PANC-1 [1]; 21 nM in the experiment with MIA PaCa-2 [2]; 164 nM with BXPC-3 [3]; 191 nM in the experiment with ASPC1. Also, the IC50 with Capan-2 is 43 nM. The inhibition in vivo at 8 mg/kg with PANC-1 [9] and in the experiment with MIA PaCa-2 [16] was 51% each time. Also, the inhibition in vivo at 16 mg/kg in the experiment on MIA PaCa-2 [10] was found to be 29%; in the experiment with PANC-1 [4], 82%. Further, in the experiment on UMUC3 [11], the inhibition in vivo at 28 mg/kg is 47%. For the same compound, the inhibition in vivo at 10 mg/kg with PANC-1 [12] turned out to be 71%. Besides, the inhibition in vivo at 36 mg/kg in the experiment with PANC-1 [13] turned out to be 90%. Moreover, the inhibition in vivo at 20 mg/kg in the experiment on PANC-1 [14] was determined as 59%. Moreover, the inhibition in vivo at 42 mg/kg with MIA PaCa-2 [15] was found to be 50%. Further, the inhibition in vivo at 30 mg/kg in the experiment with BXPC-3 [17] was 64%. The ΔTm in the experiment with Quadruplex DNA [18] stood at 28.5 °C; with Quadruplex DNA [19] it was 9.2 °C; in the experiment on Quadruplex DNA [20], 22.3 °C; in experiment [21] it was 3.8 °C.

For the compound `Cc1cc(NCCCN(C)CCCNc2ccc3ncn4c5ccccc5c(=O)c2c34)c([N+](=O)[O-])c2cc3ccccc3nc12`, the IC50 in the experiment on DU-145 worked out at 65 nM; in the experiment with NCI-H460, 25 nM; in the experiment with HCT-116 it was 65 nM; with PANC-1 [1], 98 nM; with MIA PaCa-2 [2], 87 nM; in the experiment with BXPC-3 [3] it was 224 nM. Further, the IC50 with ASPC1 stood at 1180 nM. The inhibition in vivo at 160 mg/kg in the experiment with BXPC-3 [22] came to 84%; with BXPC-3 [23], 47%. In the experiment on MDA-MB-231 [24], the inhibition in vivo at 120 mg/kg was 62%. For the same compound, the ΔTm worked out at 21.9 °C with Quadruplex DNA [18], 23.3 °C with Quadruplex DNA [19], 23.7 °C in the experiment with Quadruplex DNA [20] and 3.4 °C in [21].
